Tests used:
[1] = molecular target: Serine/threonine-protein kinase WNK3 (Homo sapiens) (UniProt Q9BYP7); conditions: Compound concentration 1000.0 nM
[2] = molecular target: Serine/threonine-protein kinase 3 (Homo sapiens) (UniProt Q13188); conditions: Compound concentration 1000.0 nM
[3] = molecular target: Discoidin domain-containing receptor 2 (Homo sapiens) (UniProt Q16832); conditions: Compound concentration 1000.0 nM
[4] = test system: eIF-2-alpha kinase GCN2 (Homo sapiens), Q9P2K8 [S808G]; conditions: Compound concentration 1000.0 nM
[5] = molecular target: Cyclin-dependent kinase 15 (Homo sapiens) (UniProt Q96Q40); conditions: Compound concentration 1000.0 nM
[6] = molecular target: Casein kinase I isoform gamma-3 (Homo sapiens) (UniProt Q9Y6M4); conditions: Compound concentration 1000.0 nM
[7] = molecular target: Serine/threonine-protein kinase Sgk3 (Homo sapiens) (UniProt Q96BR1); conditions: Compound concentration 1000.0 nM
Sequence of Serine/threonine-protein kinase Sgk3 (Homo sapiens) (Q96BR1 whole entry): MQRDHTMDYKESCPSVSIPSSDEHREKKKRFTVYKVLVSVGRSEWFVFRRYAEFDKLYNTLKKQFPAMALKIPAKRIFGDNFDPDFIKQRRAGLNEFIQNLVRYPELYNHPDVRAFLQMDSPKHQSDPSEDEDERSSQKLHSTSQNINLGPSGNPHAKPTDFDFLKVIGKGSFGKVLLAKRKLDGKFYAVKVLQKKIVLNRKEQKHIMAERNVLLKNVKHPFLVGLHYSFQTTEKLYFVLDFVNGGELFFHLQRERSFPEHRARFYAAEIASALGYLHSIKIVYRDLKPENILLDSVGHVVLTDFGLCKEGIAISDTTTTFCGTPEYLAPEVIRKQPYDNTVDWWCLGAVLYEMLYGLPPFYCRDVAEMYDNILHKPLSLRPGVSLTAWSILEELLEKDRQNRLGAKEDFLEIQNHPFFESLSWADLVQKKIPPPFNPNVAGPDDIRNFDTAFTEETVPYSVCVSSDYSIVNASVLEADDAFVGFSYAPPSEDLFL

[8] = molecular target: Serine/threonine-protein kinase SIK3 (Homo sapiens) (UniProt Q9Y2K2); conditions: Compound concentration 1000.0 nM
Sequence of Serine/threonine-protein kinase SIK3 (Homo sapiens) (Q9Y2K2 whole entry, looked up): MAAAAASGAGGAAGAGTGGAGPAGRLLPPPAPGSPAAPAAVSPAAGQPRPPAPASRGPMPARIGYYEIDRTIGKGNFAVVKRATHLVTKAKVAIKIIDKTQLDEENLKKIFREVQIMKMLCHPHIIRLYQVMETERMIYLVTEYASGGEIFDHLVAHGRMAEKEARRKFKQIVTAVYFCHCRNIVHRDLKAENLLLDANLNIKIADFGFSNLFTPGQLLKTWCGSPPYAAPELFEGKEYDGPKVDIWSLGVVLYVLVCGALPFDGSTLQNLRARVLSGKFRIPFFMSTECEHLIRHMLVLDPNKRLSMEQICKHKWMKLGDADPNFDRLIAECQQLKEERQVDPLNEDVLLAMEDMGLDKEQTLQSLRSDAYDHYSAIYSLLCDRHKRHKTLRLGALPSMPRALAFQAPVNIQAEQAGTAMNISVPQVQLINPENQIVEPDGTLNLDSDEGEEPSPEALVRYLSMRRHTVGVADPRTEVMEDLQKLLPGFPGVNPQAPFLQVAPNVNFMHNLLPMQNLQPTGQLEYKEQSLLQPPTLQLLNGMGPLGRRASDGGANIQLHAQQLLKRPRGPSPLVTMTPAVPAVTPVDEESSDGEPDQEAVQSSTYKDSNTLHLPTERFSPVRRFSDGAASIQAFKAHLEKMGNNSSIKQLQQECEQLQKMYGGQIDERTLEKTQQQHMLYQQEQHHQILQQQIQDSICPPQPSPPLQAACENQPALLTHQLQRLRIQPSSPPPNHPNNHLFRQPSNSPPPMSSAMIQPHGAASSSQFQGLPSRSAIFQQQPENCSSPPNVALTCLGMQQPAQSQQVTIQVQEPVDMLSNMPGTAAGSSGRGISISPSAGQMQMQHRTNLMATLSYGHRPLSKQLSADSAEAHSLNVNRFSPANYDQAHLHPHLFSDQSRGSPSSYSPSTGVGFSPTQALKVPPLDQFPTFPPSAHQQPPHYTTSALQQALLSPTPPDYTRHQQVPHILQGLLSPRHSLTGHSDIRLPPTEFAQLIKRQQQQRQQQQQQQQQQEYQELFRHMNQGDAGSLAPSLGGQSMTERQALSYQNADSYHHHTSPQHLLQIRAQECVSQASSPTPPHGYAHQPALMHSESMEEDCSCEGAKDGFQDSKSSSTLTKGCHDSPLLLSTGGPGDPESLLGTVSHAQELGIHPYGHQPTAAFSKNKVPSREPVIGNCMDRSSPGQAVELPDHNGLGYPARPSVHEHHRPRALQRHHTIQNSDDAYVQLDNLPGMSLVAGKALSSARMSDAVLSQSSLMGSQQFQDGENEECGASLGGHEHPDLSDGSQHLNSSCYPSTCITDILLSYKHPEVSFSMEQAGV

[9] = molecular target: Alpha-1D adrenergic receptor (Homo sapiens) (UniProt P25100); conditions: Compound concentration 10.0 uM
[10] = molecular target: Mitogen-activated protein kinase 14 (Homo sapiens) (UniProt Q16539); conditions: Compound concentration 1000.0 nM
[11] = molecular target: Serine/threonine-protein kinase 24 (Homo sapiens) (UniProt Q9Y6E0); conditions: Compound concentration 1000.0 nM
[12] = molecular target: Receptor tyrosine-protein kinase erbB-2 (Homo sapiens) (UniProt P04626); conditions: Compound concentration 1000.0 nM
[13] = test system: Epidermal growth factor receptor (Homo sapiens), P00533 [L861Q]; conditions: Compound concentration 1000.0 nM
[14] = molecular target: Fibroblast growth factor receptor 1 (Homo sapiens) (UniProt P11362); conditions: Compound concentration 1000.0 nM
Sequence of Fibroblast growth factor receptor 1 (Homo sapiens) (P11362 22-822 limits assumed): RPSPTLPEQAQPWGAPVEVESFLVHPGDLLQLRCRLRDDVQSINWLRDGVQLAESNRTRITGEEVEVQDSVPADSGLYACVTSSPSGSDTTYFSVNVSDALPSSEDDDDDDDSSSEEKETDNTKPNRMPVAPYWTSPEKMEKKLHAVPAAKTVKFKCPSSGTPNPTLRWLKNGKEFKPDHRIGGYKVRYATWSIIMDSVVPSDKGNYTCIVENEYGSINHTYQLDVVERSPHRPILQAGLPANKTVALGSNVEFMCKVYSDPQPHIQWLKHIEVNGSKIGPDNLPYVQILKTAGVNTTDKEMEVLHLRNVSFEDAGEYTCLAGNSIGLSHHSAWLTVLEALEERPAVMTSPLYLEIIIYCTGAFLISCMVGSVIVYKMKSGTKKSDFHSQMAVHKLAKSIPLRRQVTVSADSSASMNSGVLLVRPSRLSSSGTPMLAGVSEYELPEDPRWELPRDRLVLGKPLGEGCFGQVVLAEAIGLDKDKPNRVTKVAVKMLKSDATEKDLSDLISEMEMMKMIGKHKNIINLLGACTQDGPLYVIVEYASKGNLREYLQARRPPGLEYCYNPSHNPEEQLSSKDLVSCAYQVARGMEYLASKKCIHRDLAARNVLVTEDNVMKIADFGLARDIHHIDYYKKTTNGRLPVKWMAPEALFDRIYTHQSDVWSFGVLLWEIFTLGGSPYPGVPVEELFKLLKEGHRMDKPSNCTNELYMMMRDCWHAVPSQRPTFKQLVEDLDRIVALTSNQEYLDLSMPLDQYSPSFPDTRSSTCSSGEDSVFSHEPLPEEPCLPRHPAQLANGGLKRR

[15] = molecular target: Macrophage colony-stimulating factor 1 receptor (Homo sapiens) (UniProt P07333); conditions: Compound concentration 1000.0 nM
[16] = molecular target: Delta-type opioid receptor (Homo sapiens) (UniProt P41143); conditions: Compound concentration 10.0 uM
[17] = molecular target: Phosphorylase b kinase regulatory subunit alpha, liver isoform (Homo sapiens) (UniProt P46019); conditions: Compound concentration 1000.0 nM
[18] = molecular target: Protein kinase C delta type (Homo sapiens) (UniProt Q05655); conditions: Compound concentration 1000.0 nM
Sequence of Protein kinase C delta type (Homo sapiens) (Q05655 whole entry, looked up): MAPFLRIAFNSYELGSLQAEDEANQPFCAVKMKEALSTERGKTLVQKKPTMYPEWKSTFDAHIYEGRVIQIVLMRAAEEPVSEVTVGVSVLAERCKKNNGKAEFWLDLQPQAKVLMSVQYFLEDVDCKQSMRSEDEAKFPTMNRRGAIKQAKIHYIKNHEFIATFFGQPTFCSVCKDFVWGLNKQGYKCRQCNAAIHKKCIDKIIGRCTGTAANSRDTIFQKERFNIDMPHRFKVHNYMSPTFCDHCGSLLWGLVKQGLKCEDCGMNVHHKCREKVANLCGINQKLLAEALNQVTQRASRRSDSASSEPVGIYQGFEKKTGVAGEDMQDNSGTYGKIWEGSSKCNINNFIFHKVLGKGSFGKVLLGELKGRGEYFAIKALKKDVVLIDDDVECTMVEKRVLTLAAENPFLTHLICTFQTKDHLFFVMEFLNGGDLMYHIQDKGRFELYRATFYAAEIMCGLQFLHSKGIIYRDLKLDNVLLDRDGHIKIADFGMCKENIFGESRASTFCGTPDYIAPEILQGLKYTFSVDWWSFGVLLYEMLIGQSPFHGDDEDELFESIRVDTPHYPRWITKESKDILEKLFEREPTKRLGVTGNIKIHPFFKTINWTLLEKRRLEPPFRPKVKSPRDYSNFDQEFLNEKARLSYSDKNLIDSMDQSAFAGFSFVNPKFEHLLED

[19] = molecular target: Serine/threonine-protein kinase RIO2 (Homo sapiens) (UniProt Q9BVS4); conditions: Compound concentration 1000.0 nM
Sequence of Serine/threonine-protein kinase RIO2 (Homo sapiens) (Q9BVS4 whole entry, looked up): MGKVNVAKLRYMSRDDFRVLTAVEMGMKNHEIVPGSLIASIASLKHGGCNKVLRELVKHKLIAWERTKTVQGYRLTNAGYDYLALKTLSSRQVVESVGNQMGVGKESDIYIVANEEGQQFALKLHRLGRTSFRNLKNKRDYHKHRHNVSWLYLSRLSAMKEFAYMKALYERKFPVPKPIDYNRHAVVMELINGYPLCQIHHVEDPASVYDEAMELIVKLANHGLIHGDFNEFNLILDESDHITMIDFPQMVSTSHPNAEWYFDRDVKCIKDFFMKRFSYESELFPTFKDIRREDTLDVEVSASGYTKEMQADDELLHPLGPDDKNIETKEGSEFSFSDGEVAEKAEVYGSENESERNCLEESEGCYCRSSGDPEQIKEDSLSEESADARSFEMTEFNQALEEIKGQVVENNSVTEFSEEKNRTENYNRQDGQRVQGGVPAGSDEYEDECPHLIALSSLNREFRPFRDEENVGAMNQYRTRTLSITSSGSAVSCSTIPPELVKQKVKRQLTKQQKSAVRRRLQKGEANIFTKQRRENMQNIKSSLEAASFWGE

[20] = molecular target: Vascular endothelial growth factor receptor 3 (Homo sapiens) (UniProt P35916); conditions: Compound concentration 1000.0 nM
[21] = molecular target: Dual specificity mitogen-activated protein kinase kinase 7 (Homo sapiens) (UniProt O14733); conditions: Compound concentration 1000.0 nM
[22] = molecular target: Dual specificity protein kinase CLK3 (Homo sapiens) (UniProt P49761); conditions: Compound concentration 1000.0 nM
[23] = test system: Tyrosine-protein kinase ABL1 (Homo sapiens), P00519 [F317I]; conditions: Compound concentration 1000.0 nM
[24] = molecular target: High affinity nerve growth factor receptor (Homo sapiens) (UniProt P04629); conditions: Compound concentration 1000.0 nM
[25] = test system: ALK tyrosine kinase receptor (Homo sapiens), Q9UM73 [L1196M]; conditions: Compound concentration 1000.0 nM
[26] = molecular target: Tyrosine-protein kinase Tec (Homo sapiens) (UniProt P42680); conditions: Compound concentration 1000.0 nM
[27] = molecular target: Serine/threonine-protein kinase Nek9 (Homo sapiens) (UniProt Q8TD19); conditions: Compound concentration 1000.0 nM
[28] = molecular target: Myosin-IIIa (Homo sapiens) (UniProt Q8NEV4); conditions: Compound concentration 1000.0 nM
[29] = molecular target: Calcium/calmodulin-dependent protein kinase type 1G (Homo sapiens) (UniProt Q96NX5); conditions: Compound concentration 1000.0 nM
[30] = molecular target: Serine/threonine-protein kinase SIK2 (Homo sapiens) (UniProt Q9H0K1); conditions: Compound concentration 1000.0 nM
Sequence of Serine/threonine-protein kinase SIK2 (Homo sapiens) (Q9H0K1 whole entry, looked up): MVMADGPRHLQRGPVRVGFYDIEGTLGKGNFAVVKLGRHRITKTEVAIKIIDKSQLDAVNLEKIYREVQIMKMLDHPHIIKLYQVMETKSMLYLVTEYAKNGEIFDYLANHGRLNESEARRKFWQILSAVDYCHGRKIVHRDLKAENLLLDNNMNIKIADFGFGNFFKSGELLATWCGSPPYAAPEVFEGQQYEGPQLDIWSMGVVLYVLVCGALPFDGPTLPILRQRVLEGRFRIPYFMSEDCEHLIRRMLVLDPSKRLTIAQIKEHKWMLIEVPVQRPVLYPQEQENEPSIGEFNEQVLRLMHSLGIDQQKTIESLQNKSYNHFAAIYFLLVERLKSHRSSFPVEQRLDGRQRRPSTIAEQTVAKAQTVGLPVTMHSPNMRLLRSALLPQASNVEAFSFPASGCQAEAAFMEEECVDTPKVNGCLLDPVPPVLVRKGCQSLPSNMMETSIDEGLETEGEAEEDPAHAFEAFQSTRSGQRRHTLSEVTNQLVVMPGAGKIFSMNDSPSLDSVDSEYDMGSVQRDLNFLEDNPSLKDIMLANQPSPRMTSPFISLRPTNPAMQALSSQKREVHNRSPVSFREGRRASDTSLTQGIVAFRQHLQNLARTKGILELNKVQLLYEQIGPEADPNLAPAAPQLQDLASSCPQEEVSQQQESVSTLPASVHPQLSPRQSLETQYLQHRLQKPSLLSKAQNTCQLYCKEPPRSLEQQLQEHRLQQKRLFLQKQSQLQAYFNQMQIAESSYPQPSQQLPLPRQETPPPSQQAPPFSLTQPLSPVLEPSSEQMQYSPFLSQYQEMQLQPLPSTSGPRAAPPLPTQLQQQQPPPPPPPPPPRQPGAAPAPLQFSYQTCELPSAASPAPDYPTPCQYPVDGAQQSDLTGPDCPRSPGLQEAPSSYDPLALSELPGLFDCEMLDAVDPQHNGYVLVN

[31] = molecular target: SRSF protein kinase 2 (Homo sapiens) (UniProt P78362); conditions: Compound concentration 1000.0 nM
[32] = molecular target: Mast/stem cell growth factor receptor Kit (Homo sapiens) (UniProt P10721); conditions: Compound concentration 1000.0 nM
[33] = molecular target: Leukocyte tyrosine kinase receptor (Homo sapiens) (UniProt P29376); conditions: Compound concentration 1000.0 nM
[34] = molecular target: Tyrosine-protein kinase JAK1 (Homo sapiens) (UniProt P23458); conditions: Compound concentration 1000.0 nM
[35] = molecular target: Sodium-dependent dopamine transporter (Homo sapiens) (UniProt Q01959); conditions: Compound concentration 10.0 uM
[36] = molecular target: Tyrosine-protein kinase receptor TYRO3 (Homo sapiens) (UniProt Q06418); conditions: Compound concentration 1000.0 nM
[37] = molecular target: Calcium/calmodulin-dependent protein kinase type II subunit delta (Homo sapiens) (UniProt Q13557); conditions: Compound concentration 1000.0 nM
[38] = molecular target: Tyrosine-protein kinase BTK (Homo sapiens) (UniProt Q06187); conditions: Compound concentration 1000.0 nM
[39] = molecular target: Serine/threonine-protein kinase DCLK3 (Homo sapiens) (UniProt Q9C098); conditions: Compound concentration 1000.0 nM
[40] = molecular target: Serine/threonine-protein kinase 36 (Homo sapiens) (UniProt Q9NRP7); conditions: Compound concentration 1000.0 nM
[41] = molecular target: Mitogen-activated protein kinase kinase kinase 6 (Homo sapiens) (UniProt O95382); conditions: Compound concentration 1000.0 nM
[42] = molecular target: Cyclin-dependent kinase 19 (Homo sapiens) (UniProt Q9BWU1); conditions: Compound concentration 1000.0 nM
[43] = molecular target: Serine/threonine-protein kinase NIM1 (Homo sapiens) (UniProt Q8IY84); conditions: Compound concentration 1000.0 nM
[44] = molecular target: Serine/threonine-protein kinase Nek5 (Homo sapiens) (UniProt Q6P3R8); conditions: Compound concentration 1000.0 nM
[45] = molecular target: Mitogen-activated protein kinase 6 (Homo sapiens) (UniProt Q16659); conditions: Compound concentration 1000.0 nM
[46] = molecular target: Mitogen-activated protein kinase kinase kinase 10 (Homo sapiens) (UniProt Q02779); conditions: Compound concentration 1000.0 nM

CC(=O)C1=C(C)N(c2cccc(C(F)(F)F)c2)C(=O)N[C@@H]1c1ccc(C#N)nc1 [BAY-678]
inactive: residual activity [1] 100% | residual activity [2] 93.1% | residual activity [3] 87.6% | residual activity [4] 56.9% | residual activity [5] 100% | residual activity [6] 100% | residual activity [7] 100% | residual activity [8] 100% | inhibition [9] 3.11% | residual activity [10] 100% | residual activity [11] 95.4% | residual activity [12] 95.6% | residual activity [13] 100% | residual activity [14] 100% | residual activity [15] 100% | inhibition [16] -6.02% | residual activity [17] 80.8% | residual activity [18] 100% | residual activity [19] 98% | residual activity [20] 100% | residual activity [21] 100% | residual activity [22] 100% | residual activity [23] 100% | residual activity [24] 100% | residual activity [25] 94.1% | residual activity [26] 100% | residual activity [27] 100% | residual activity [28] 85.1% | residual activity [29] 100% | residual activity [30] 87.8% | residual activity [31] 100% | residual activity [32] 96.9% | residual activity [33] 92.6% | residual activity [34] 85.9% | inhibition [35] -0.342% | residual activity [36] 66.9% | residual activity [37] 100% | residual activity [38] 100% | residual activity [39] 53.9% | residual activity [40] 100% | residual activity [41] 91.2% | residual activity [42] 96.9% | residual activity [43] 83.5% | residual activity [44] 80.6% | residual activity [45] 75.8% | residual activity [46] 92.1%

Reference: ChEMBL document CHEMBL4507272 (2021)
